Measured values from ChEMBL document CHEMBL5303304, “EUbOPEN Chemogenomics Library - IncuCyte” (2023).

How the values were obtained:
Type in all cases: toxicity, cell-based
[1] = tested on: HEK-293T; test: Incucyte cell viability with HEK293T; details: human, 10 µM, compound concentration 10 uM
[2] = tested on: Fibroblast; test: Incucyte cell viability with human fibroblast; details: 10 µM, compound concentration 10 uM
[3] = tested on: U2OS; test: Incucyte cell viability with U2OS; details: human, 10 µM, compound concentration 10 uM
Further: unitless GR value; below 1 slowed growth and below 0 cell loss.

| Compound | Growth Rate ([1]; 0 h, replicate number 1) | Growth Rate ([1]; 0 h, replicate number 2) | Growth Rate ([1]; 6 h, replicate number 2) | Growth Rate ([1]; 12 h, replicate number 2) | Growth Rate ([1]; 18 h, replicate number 1) | Growth Rate ([1]; 24 h, replicate number 1) | Growth Rate ([1]; 24 h, replicate number 2) | Growth Rate ([2]; 6 h, replicate number 2) | Growth Rate ([2]; 12 h, replicate number 1) | Growth Rate ([2]; 12 h, replicate number 2) | Growth Rate ([2]; 18 h, replicate number 1) | Growth Rate ([2]; 18 h, replicate number 2) | Growth Rate ([2]; 24 h, replicate number 1) | Growth Rate ([2]; 24 h, replicate number 2) | Growth Rate ([2]; 0 h, replicate number 2) | Growth Rate ([1]; 6 h, replicate number 1) | Growth Rate ([1]; 12 h, replicate number 1) | Growth Rate ([1]; 18 h, replicate number 2) | Growth Rate ([2]; 6 h, replicate number 1) | further results |
| --- | --- | --- | --- | --- | --- | --- | --- | --- | --- | --- | --- | --- | --- | --- | --- | --- | --- | --- | --- | --- |
| CCNC1=N[C@@H]2[C@@H](O)[C@H](O)[C@@H](CO)O[C@@H]2S1 | -0.01 | -0.15 | 0.53 | 0.93 | 0.78 | 0.86 | 0.89 | 0.18 | 0.91 | 0.76 | 0.83 | 0.8 | 0.92 | 0.99 | – | – | – | – | – | Growth Rate ([3]; 0 h, replicate number 1): -0.37; Growth Rate ([3]; 0 h, replicate number 2): 0.47; Growth Rate ([3]; 6 h, replicate number 1): 0.53; Growth Rate ([3]; 6 h, replicate number 2): 0.45; Growth Rate ([3]; 12 h, replicate number 1): 0.86; Growth Rate ([3]; 12 h, replicate number 2): 0.79; Growth Rate ([3]; 18 h, replicate number 1): 0.91; Growth Rate ([3]; 18 h, replicate number 2): 0.81; Growth Rate ([3]; 24 h, replicate number 1): 0.95; Growth Rate ([3]; 24 h, replicate number 2): 0.74 |
| Fc1ccc(Cl)cc1-c1nc(Nc2ccncc2)c2nccnc2n1 | -0.93 | – | 0.79 | 0.91 | – | – | – | – | – | – | – | – | – | – | -0.5 | – | – | – | – | Growth Rate ([3]; 0 h, replicate number 1): -0.59; Growth Rate ([3]; 0 h, replicate number 2): 0.75; Growth Rate ([3]; 6 h, replicate number 1): 0.78; Growth Rate ([3]; 6 h, replicate number 2): 0.55; Growth Rate ([3]; 12 h, replicate number 1): 0.86; Growth Rate ([3]; 12 h, replicate number 2): 0.77; Growth Rate ([3]; 18 h, replicate number 1): 0.67; Growth Rate ([3]; 18 h, replicate number 2): 0.87; Growth Rate ([3]; 24 h, replicate number 1): 0.95; Growth Rate ([3]; 24 h, replicate number 2): 0.75 |
| O=C(Nc1ccc(C(O)(C(F)(F)F)C(F)(F)F)cc1)c1ccc(C(F)(F)F)cc1 | – | -0.33 | 0.09 | 0.2 | 0.04 | 0.05 | 0.15 | -0.08 | 0.64 | 0.22 | 0.52 | 0.11 | 0.47 | 0.07 | – | -0.31 | -0.13 | 0.18 | 0.78 | – |
| Cc1ncsc1-c1ccc(CNC(=O)[C@@H]2C[C@@H](O)CN2C(=O)[C@@H](NC(=O)C2(F)CC2)C(C)(C)C)c(OCCOc2ccc(CN3CCN(c4cc(-c5ccccc5O)nnc4N)CC3)cc2)c1 | -1 | – | – | – | – | – | – | – | – | – | – | – | – | – | -1 | – | – | – | – | – |
| COc1cc(C(=O)NCCOCCOCCOCCC(=O)Nc2cccc3c2C(=O)N(C2CCC(=O)NC2=O)C3=O)ccc1Nc1ncc(C(F)(F)F)c(Oc2cccc3c2C(=O)CC3)n1 (stereo not given) | -0.87 | -0.99 | – | – | 0.71 | 0.61 | 0.74 | – | – | 0.65 | – | – | – | – | 0.45 | 0.89 | 0.57 | 0.69 | – | – |
| N=C(N)NCCC[C@H](NC(=O)CC1(CC(=O)N2CCN(C(c3ccccc3)c3ccccc3)CC2)CCCC1)C(=O)NCc1ccccc1.O=C(O)C(F)(F)F.O=C(O)C(F)(F)F | 0.71 | – | 0.95 | – | – | – | – | – | 0.74 | – | 0.47 | 0.92 | 0.8 | 0.64 | -0.98 | 0.7 | 0.89 | – | 0.88 | – |
| N=C(N)Nc1cc(C2CCNCC2)cc(C(F)(F)F)c1.O=C(O)C(F)(F)F.O=C(O)C(F)(F)F | 0.85 | -0.14 | – | – | 0.98 | 0.96 | – | – | – | – | – | – | 0.99 | – | -1 | 0.69 | 0.91 | – | – | – |
| COc1cc2nc([C@@H]3CCCS(=O)(=O)C3)n(C)c2cc1NC(=O)c1cccc(C(C)(F)F)n1 | -0.79 | -0.88 | – | – | – | – | – | – | – | – | – | – | – | – | -0.81 | – | – | – | – | – |
| c1ccc(C(OC2CCN(CCCc3nnn[nH]3)CC2)c2ccccc2)cc1 | – | – | 0.46 | 0.67 | 0.57 | 0.65 | 0.75 | -0.26 | – | – | – | 0.75 | – | – | – | 0.35 | 0.7 | 0.85 | – | – |
| C[C@@H](COCCC(=O)N1CCN(c2ncc(C(F)(F)F)cn2)CC1)Nc1cn[nH]c(=O)c1C(F)(F)F [ATAMPARIB] | 0.95 | 0.81 | 0.59 | 0.8 | – | – | 0.75 | 0.74 | 0.3 | 0.15 | 0.22 | 0.13 | 0.39 | 0.15 | – | – | – | 0.9 | 0.88 | – |
| Cc1ccc(NC(=O)c2ccc(CN3CC[C@H](N(C)C)C3)c(C(F)(F)F)c2)cc1Nc1nccc(-c2cncnc2)n1 [BAFETINIB] | – | – | – | 0.68 | 0.96 | 0.97 | – | -0.55 | 0.05 | 0.02 | 0.01 | 0.39 | 0.14 | 0.54 | 0.2 | 0.57 | 0.67 | 0.99 | -0.23 | Growth Rate ([2]; 0 h, replicate number 1): -1 |
| CCN(CC)C(=O)C1CN2CCc3cc(OC)c(OC)cc3C2CC1OC(C)=O (stereo not given) [BENZQUINAMIDE] | 0.39 | – | 0.7 | 0.59 | – | – | 0.87 | -0.43 | – | 1 | – | 0.6 | – | 0.97 | – | – | – | 0.61 | – | – |
| CN(C)C(=O)Cn1cc(-c2nc(C3(c4ccc(-c5cnc(N)nc5)cc4)CC3)no2)cn1 [BI 0153] | 0.71 | – | – | – | 0.95 | 0.92 | – | -0.35 | – | 0.4 | 0.91 | 0.6 | 0.73 | 0.96 | -0.89 | 0.25 | – | – | 0.57 | Growth Rate ([2]; 0 h, replicate number 1): -1 |
| CN[C@@H](C)C(=O)N[C@H](C(=O)N1CCC[C@H]1C(=O)Nc1sc(-c2ncco2)nc1-c1ccccc1)C1CCCCC1 [GDC-0917] | 0.71 | – | 0.98 | – | 0.86 | 0.92 | 0.99 | 0.6 | – | – | – | – | – | – | – | 0.6 | 0.93 | – | – | Growth Rate ([2]; 0 h, replicate number 1): -1 |
| CC(C)(O)c1cnc(N2C[C@@]3(CCC[C@](C)(Cn4cnc5ccc(C#N)cc54)C3)OC2=O)cn1 [GSK2798745] | – | – | 0.2 | 0.41 | 0.47 | 0.49 | 0.45 | -1 | – | -0.2 | -0.39 | 0.4 | – | 0.36 | – | -0.31 | 0.38 | 0.43 | – | Growth Rate ([2]; 0 h, replicate number 1): 0.24 |
| Cc1cccc(-c2[nH]c(CNc3ccccc3F)nc2-c2ccc3ncnn3c2)n1 [VACTOSERTIB] | 0.84 | -0.43 | 0.58 | – | – | – | – | – | – | – | 0.97 | – | – | – | -0.26 | 0.95 | – | – | – | – |
